Test results taken from patent US6706663B2, “Herbicidal 3-heterocyclic substituted benzisothiazole and benzisoxazole compounds” (Wyeth, priority 2000, dated 2004).

What was measured:
[1] = test system: SAGPY (Sagittaria pygmaea); assay: Flooded paddy, preemergence weed control; type: in vivo, L.; details: rated 3-4 weeks after treatment, 0-9 rating scale
How it was run: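 Scoring used a 0-9 visual scale relative to control. Before that, seeds or propagules were planted shallowly in silt loam and flooded to 1.5–3 cm, a depth maintained throughout, with greenhouse care during the test.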

[2] = test system: CYPSE (Cyperus serotinus); assay: Flooded paddy, preemergence weed control; type: in vivo, Rottb.; details: rated 3-4 weeks after treatment, 0-9 rating scale
How it was run: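 Herbicidal effect was scored visually on a 0–9 scale against an untreated control 3–4 weeks after treatment. Compounds were applied preemergence as 50/50 v/v aqueous/acetone mixtures into flood water (1.5–3 cm deep over silt loam), at roughly 0.0080 to 0.1250 kg/ha active ingredient.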

ORYSAT (Rice, Tebonnet) [3] = assay: Flooded paddy, post-transplant rice tolerance; type: in vivo, Oryza sativa, (L.) Tebonnet; details: flooded paddy, post-transplant rice, rated 3-4 weeks after treatment, 0-9 rating scale
How it was run: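 Seedlings aged ten days are transplanted in pairs into undrained pots of silt loam, which are then flooded to a depth of 1.5 to 3 cm. After herbicide application the pots are kept in a greenhouse with the flood maintained. Plants are rated 0-9 by visual comparison with controls.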

ORYSAT (Rice, Tebonnet) [4] = assay: Preemergence herbicidal evaluation; type: in vivo, Oryza sativa, (L.) Tebonnet; details: preemergence, rated 4-5 weeks after treatment
GALAP (Galium aparine) [5] = assay: Postemergence herbicidal evaluation; type: in vivo
How it was run: (§1)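 Seedlings grown for about two weeks were sprayed postemergence and then kept under standard greenhouse care. Injury was rated visually 4–5 weeks after treatment on a 0–9 scale against untreated controls, and ratings from repeat tests were averaged.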

ORYSAT (Rice, Tebonnet) [6] = assay: Postemergence herbicidal evaluation; type: in vivo, Oryza sativa, (L.) Tebonnet
How it was run: as §1

[7] = test system: AMBEL (Ambrosia artemisifolia); assay: Preemergence herbicidal evaluation; type: in vivo, L.; details: preemergence, rated 4-5 weeks after treatment
How it was run: (§2)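 Test compound is applied in aqueous acetone to cups just after seeding. Cups are watered and maintained on greenhouse benches. Each cup is scored 0–9 by eye relative to a control after four to five weeks.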

[8] = test system: CASOB (Cassia obtusifolia); assay: Preemergence herbicidal evaluation; type: in vivo, L.; details: preemergence, rated 4-5 weeks after treatment
How it was run: as §2

[9] = test system: CHEAL (Chenopodium album); assay: Preemergence herbicidal evaluation; type: in vivo, L.; details: preemergence, rated 4-5 weeks after treatment
How it was run: as §2

[10] = test system: ECHCG (Echinochloa crus-galli); assay: Postemergence herbicidal evaluation; type: in vivo, (L.) Beau
How it was run: as §1

[11] = test system: GLXMAW (Soybean, Williams); assay: Postemergence herbicidal evaluation; type: in vivo, Glycine max, (L.) Merr. cv Williams
How it was run: as §1

GALAP (Galium aparine) [12] = assay: Preemergence herbicidal evaluation; type: in vivo; details: preemergence, rated 4-5 weeks after treatment
How it was run: as §2

[13] = test system: TRZAWR (Wheat, Winter, cv Riband); assay: Preemergence herbicidal evaluation; type: in vivo, Triticum aestivum; details: preemergence, rated 4-5 weeks after treatment
How it was run: as §2

[14] = test system: ABUTH (Abutilon theophrasti); assay: Postemergence herbicidal evaluation; type: in vivo, Medic.
How it was run: as §1

ZEAMX (Corn, Field) = assay: Postemergence herbicidal evaluation; type: in vivo, Zea mays, L.
How it was run: as §1

[15] = test system: AMBEL (Ambrosia artemisifolia); assay: Postemergence herbicidal evaluation; type: in vivo, L.
How it was run: as §1

[16] = test system: CASOB (Cassia obtusifolia); assay: Postemergence herbicidal evaluation; type: in vivo, L.
How it was run: as §1

[17] = test system: CHEAL (Chenopodium album); assay: Postemergence herbicidal evaluation; type: in vivo, L.
How it was run: as §1

[18] = test system: ABUTH (Abutilon theophrasti); assay: Preemergence herbicidal evaluation; type: in vivo, Medic.; details: preemergence, rated 4-5 weeks after treatment
[19] = test system: IPOHE (Ipomoea hederacea); assay: Preemergence herbicidal evaluation; type: in vivo, (L.) Jacq.; details: preemergence, rated 4-5 weeks after treatment

CC(=O)N1CCSC1c1nsc2ccc(-n3c(=O)cc(C(F)(F)F)n(C)c3=O)cc12 (stereo not shown) [Compound 29, 3-acetyl-2-[5-[3,6-dihydro-3-methyl-2,6-dioxo-4-(trifluoromethyl)-1(2H)-pyrimidinyl]-1,2-benzisothiazol-3-yl]thiazolidine]
0.0: herbicidal rating, SAGPY ([1]; rate 0.0080 kg/ha) | herbicidal rating, CYPSE ([2]; rate 0.0320 kg/ha) | herbicidal rating, ORYSAT (rice tolerance) (ORYSAT (Rice, Tebonnet) [3]; rate 0.0080 kg/ha) | Postemergence herbicidal rating, ECHCG ([10]; rate 0.0320 kg/ha)
4.0: ORYSAT preemergence herbicidal rating (ORYSAT (Rice, Tebonnet) [4]; Rate 0.0620 kg/ha) | Postemergence herbicidal rating, GALAP (GALAP (Galium aparine) [5]; rate 0.0320 kg/ha)
3.0: Postemergence herbicidal rating, ORYSAT (ORYSAT (Rice, Tebonnet) [6]; rate 0.0320 kg/ha) | Postemergence herbicidal rating, ORYSAT (ORYSAT (Rice, Tebonnet) [6]; rate 0.0620 kg/ha) | GALAP preemergence herbicidal rating (GALAP (Galium aparine) [12]; Rate 0.0620 kg/ha)
8.0: AMBEL preemergence herbicidal rating ([7]; Rate 0.1250 kg/ha) | CASOB preemergence herbicidal rating ([8]; Rate 0.2500 kg/ha) | Postemergence herbicidal rating, GLXMAW ([11]; rate 0.0620 kg/ha) | TRZAWR preemergence herbicidal rating ([13]; Rate 0.1250 kg/ha) | TRZAWR preemergence herbicidal rating ([13]; Rate 0.2500 kg/ha) | ABUTH preemergence herbicidal rating ([18]; Rate 0.0620 kg/ha)
7.5: Postemergence herbicidal rating, GLXMAW ([11]; rate 0.0320 kg/ha) | IPOHE preemergence herbicidal rating ([19]; Rate 0.1250 kg/ha)
5.0: ORYSAT preemergence herbicidal rating (ORYSAT (Rice, Tebonnet) [4]; Rate 0.1250 kg/ha) | Postemergence herbicidal rating, CASOB ([16]; rate 0.0620 kg/ha) | IPOHE preemergence herbicidal rating ([19]; Rate 0.0620 kg/ha)
2.0: Postemergence herbicidal rating, ECHCG ([10]; rate 0.0620 kg/ha) | TRZAWR preemergence herbicidal rating ([13]; Rate 0.0620 kg/ha) | Postemergence herbicidal rating, CASOB ([16]; rate 0.0320 kg/ha)
6.0: herbicidal rating, CYPSE ([2]; rate 0.1250 kg/ha) | Postemergence herbicidal rating, GALAP (GALAP (Galium aparine) [5]; rate 0.0620 kg/ha) | Postemergence herbicidal rating, ZEAMX (ZEAMX (Corn, Field); rate 0.0320 kg/ha) | Postemergence herbicidal rating, ZEAMX (ZEAMX (Corn, Field); rate 0.0620 kg/ha)
3.5: herbicidal rating, SAGPY ([1]; rate 0.0320 kg/ha) | herbicidal rating, ORYSAT (rice tolerance) (ORYSAT (Rice, Tebonnet) [3]; rate 0.0320 kg/ha) | CASOB preemergence herbicidal rating ([8]; Rate 0.0620 kg/ha)
6.5: ORYSAT preemergence herbicidal rating (ORYSAT (Rice, Tebonnet) [4]; Rate 0.2500 kg/ha) | CASOB preemergence herbicidal rating ([8]; Rate 0.1250 kg/ha)
7.0: herbicidal rating, ORYSAT (rice tolerance) (ORYSAT (Rice, Tebonnet) [3]; rate 0.1250 kg/ha) | AMBEL preemergence herbicidal rating ([7]; Rate 0.0620 kg/ha) | GALAP preemergence herbicidal rating (GALAP (Galium aparine) [12]; Rate 0.1250 kg/ha)
9.0: herbicidal rating, SAGPY ([1]; rate 0.1250 kg/ha) | AMBEL preemergence herbicidal rating ([7]; Rate 0.2500 kg/ha) | CHEAL preemergence herbicidal rating ([9]; Rate 0.0620 kg/ha) | CHEAL preemergence herbicidal rating ([9]; Rate 0.1250 kg/ha) | CHEAL preemergence herbicidal rating ([9]; Rate 0.2500 kg/ha) | GALAP preemergence herbicidal rating (GALAP (Galium aparine) [12]; Rate 0.2500 kg/ha) | Postemergence herbicidal rating, ABUTH ([14]; rate 0.0320 kg/ha) | Postemergence herbicidal rating, ABUTH ([14]; rate 0.0620 kg/ha) | Postemergence herbicidal rating, AMBEL ([15]; rate 0.0320 kg/ha) | Postemergence herbicidal rating, AMBEL ([15]; rate 0.0620 kg/ha) | Postemergence herbicidal rating, CHEAL ([17]; rate 0.0320 kg/ha) | Postemergence herbicidal rating, CHEAL ([17]; rate 0.0620 kg/ha) | ABUTH preemergence herbicidal rating ([18]; Rate 0.1250 kg/ha) | ABUTH preemergence herbicidal rating ([18]; Rate 0.2500 kg/ha) | IPOHE preemergence herbicidal rating ([19]; Rate 0.2500 kg/ha)

Cn1c(C(F)(F)F)cc(=O)n(-c2ccc3snc(C4SCCN4C(=O)c4ccccc4)c3c2)c1=O (stereo not shown) [Compound 30, 3-benzoyl-2-[5-[3,6-dihydro-3-methyl-2,6-dioxo-4-(trifluoromethyl)-1(2H)-pyrimidinyl]-1,2-benzisothiazol-3-yl]thiazolidine]
6.0: herbicidal rating, SAGPY ([1]; rate 0.1250 kg/ha) | Postemergence herbicidal rating, GLXMAW ([11]; rate 0.0320 kg/ha) | TRZAWR preemergence herbicidal rating ([13]; Rate 0.2500 kg/ha) | Postemergence herbicidal rating, ZEAMX (ZEAMX (Corn, Field); rate 0.0620 kg/ha)
2.0: Postemergence herbicidal rating, ORYSAT (ORYSAT (Rice, Tebonnet) [6]; rate 0.0320 kg/ha) | Postemergence herbicidal rating, ECHCG ([10]; rate 0.0620 kg/ha) | TRZAWR preemergence herbicidal rating ([13]; Rate 0.1250 kg/ha) | Postemergence herbicidal rating, CASOB ([16]; rate 0.0620 kg/ha)
3.0: herbicidal rating, CYPSE ([2]; rate 0.1250 kg/ha) | herbicidal rating, ORYSAT (rice tolerance) (ORYSAT (Rice, Tebonnet) [3]; rate 0.0320 kg/ha) | Postemergence herbicidal rating, GALAP (GALAP (Galium aparine) [5]; rate 0.0620 kg/ha) | Postemergence herbicidal rating, ORYSAT (ORYSAT (Rice, Tebonnet) [6]; rate 0.0620 kg/ha) | CASOB preemergence herbicidal rating ([8]; Rate 0.2500 kg/ha)
0.0: herbicidal rating, SAGPY ([1]; rate 0.0080 kg/ha) | herbicidal rating, CYPSE ([2]; rate 0.0320 kg/ha) | herbicidal rating, ORYSAT (rice tolerance) (ORYSAT (Rice, Tebonnet) [3]; rate 0.0080 kg/ha) | ORYSAT preemergence herbicidal rating (ORYSAT (Rice, Tebonnet) [4]; Rate 0.0620 kg/ha) | ORYSAT preemergence herbicidal rating (ORYSAT (Rice, Tebonnet) [4]; Rate 0.1250 kg/ha) | CASOB preemergence herbicidal rating ([8]; Rate 0.0620 kg/ha) | Postemergence herbicidal rating, ECHCG ([10]; rate 0.0320 kg/ha) | GALAP preemergence herbicidal rating (GALAP (Galium aparine) [12]; Rate 0.0620 kg/ha) | TRZAWR preemergence herbicidal rating ([13]; Rate 0.0620 kg/ha) | Postemergence herbicidal rating, CASOB ([16]; rate 0.0320 kg/ha)
7.0: GALAP preemergence herbicidal rating (GALAP (Galium aparine) [12]; Rate 0.1250 kg/ha)
6.5: Postemergence herbicidal rating, GLXMAW ([11]; rate 0.0620 kg/ha) | IPOHE preemergence herbicidal rating ([19]; Rate 0.2500 kg/ha)
4.5: AMBEL preemergence herbicidal rating ([7]; Rate 0.0620 kg/ha) | Postemergence herbicidal rating, ZEAMX (ZEAMX (Corn, Field); rate 0.0320 kg/ha)
1.5: CASOB preemergence herbicidal rating ([8]; Rate 0.1250 kg/ha) | IPOHE preemergence herbicidal rating ([19]; Rate 0.0620 kg/ha) | IPOHE preemergence herbicidal rating ([19]; Rate 0.1250 kg/ha)
4.0: Postemergence herbicidal rating, AMBEL ([15]; rate 0.0320 kg/ha) | Postemergence herbicidal rating, CHEAL ([17]; rate 0.0320 kg/ha)
7.5: AMBEL preemergence herbicidal rating ([7]; Rate 0.1250 kg/ha)
5.0: herbicidal rating, ORYSAT (rice tolerance) (ORYSAT (Rice, Tebonnet) [3]; rate 0.1250 kg/ha)
9.0: AMBEL preemergence herbicidal rating ([7]; Rate 0.2500 kg/ha) | CHEAL preemergence herbicidal rating ([9]; Rate 0.0620 kg/ha) | CHEAL preemergence herbicidal rating ([9]; Rate 0.1250 kg/ha) | CHEAL preemergence herbicidal rating ([9]; Rate 0.2500 kg/ha) | GALAP preemergence herbicidal rating (GALAP (Galium aparine) [12]; Rate 0.2500 kg/ha) | Postemergence herbicidal rating, ABUTH ([14]; rate 0.0320 kg/ha) | Postemergence herbicidal rating, ABUTH ([14]; rate 0.0620 kg/ha) | Postemergence herbicidal rating, AMBEL ([15]; rate 0.0620 kg/ha) | Postemergence herbicidal rating, CHEAL ([17]; rate 0.0620 kg/ha) | ABUTH preemergence herbicidal rating ([18]; Rate 0.0620 kg/ha) | ABUTH preemergence herbicidal rating ([18]; Rate 0.1250 kg/ha) | ABUTH preemergence herbicidal rating ([18]; Rate 0.2500 kg/ha)
1.0: herbicidal rating, SAGPY ([1]; rate 0.0320 kg/ha) | ORYSAT preemergence herbicidal rating (ORYSAT (Rice, Tebonnet) [4]; Rate 0.2500 kg/ha) | Postemergence herbicidal rating, GALAP (GALAP (Galium aparine) [5]; rate 0.0320 kg/ha)
